Drawing on US6048893A, “Substituted phenyl compounds with a substituent having A 1,3-benzodioxole ring” (Rhone-Poulenc Rorer Limited, priority 1995, dated 2000), this text covers IC50 and anti-fibrotic effect for two molecules.

One assay deals with T1, A10 cell ETA receptors (Rattus norvegicus, UniProt P26684).
T1 construct: endogenous in cells; host or cells: A10 cells (frozen cells, about 60,000 per well)
T1 sequence (P26684 21-426): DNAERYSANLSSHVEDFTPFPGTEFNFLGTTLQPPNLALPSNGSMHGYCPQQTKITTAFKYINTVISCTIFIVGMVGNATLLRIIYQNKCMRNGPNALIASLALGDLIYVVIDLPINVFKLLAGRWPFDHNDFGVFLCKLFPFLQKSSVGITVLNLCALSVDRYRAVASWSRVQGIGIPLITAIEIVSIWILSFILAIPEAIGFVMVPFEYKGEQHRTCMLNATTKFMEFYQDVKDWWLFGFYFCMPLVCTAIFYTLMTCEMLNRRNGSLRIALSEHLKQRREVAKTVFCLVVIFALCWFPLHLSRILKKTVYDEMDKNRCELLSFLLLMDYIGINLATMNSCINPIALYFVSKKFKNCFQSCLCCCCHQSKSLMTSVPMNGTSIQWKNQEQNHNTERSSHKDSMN
Kind of assay: Inhibition of [125I]-ET-1 binding to A10 cell ETA receptors. The following applies: [125I]-ET-1 20 pM, 2 hours at 37 C; read-out: concentration producing 50% inhibition of the binding of [125I]-ET-1 to A10 cell ETA receptors. The procedure: A) Preparation of ETA Receptors:
A10 cells are grown to confluence in Dulbecco's modified essential medium containing 10% foetal calf serum. Two days after the final medium change cells are harvested by scraping from the base of the flask and centrifuged at 1500 rpm for 10 minutes at 4-- C in an bench centrifuge. The resulting pellets are washed in 50 mM Hepes buffer pH 7.3 containing calcium chloride (1 mM) and magnesium chloride (5 mM) and resuspended at a density of 140,000 cells/ml in the same. Cell suspensions are then frozen using a mixture of methanol and solid carbon dioxide and stored at -20-- C until required. For use in the assay cells are diluted to the required density with Hepes buffer pH 7.3.
Assays are performed using Millipore 96 well filtration plates with 0.22 μm filters in a final volume of […]. Mixtures consisting of test compound and [^125 I]-ET-1 (20 pM) in buffer pH 7.4 containing 0.1% bovine serum albumin are treated with either A10 cells or cerebellum protein. Total and non-specific binding are measured in the absence and presence of unlabeled ET-1 (100 nM). Approximately 60,000 A10 cells are used per well or 5 μg of cerebellum protein. Plates are incubated for 2 hours at 37-- C before the reaction is terminated by vacuum filtration. Plates are washed twice with assay buffer at 4-- C and the filters are punched out for gamma counting.

Assay [1] concerns the target T2, rat cerebellum ETB receptors (Rattus norvegicus, UniProt P21451).
T2 construct: from tissue; host or cells: rat cerebellum, particulate fraction (4000 g pellet)
T2 sequence (P21451 27-442): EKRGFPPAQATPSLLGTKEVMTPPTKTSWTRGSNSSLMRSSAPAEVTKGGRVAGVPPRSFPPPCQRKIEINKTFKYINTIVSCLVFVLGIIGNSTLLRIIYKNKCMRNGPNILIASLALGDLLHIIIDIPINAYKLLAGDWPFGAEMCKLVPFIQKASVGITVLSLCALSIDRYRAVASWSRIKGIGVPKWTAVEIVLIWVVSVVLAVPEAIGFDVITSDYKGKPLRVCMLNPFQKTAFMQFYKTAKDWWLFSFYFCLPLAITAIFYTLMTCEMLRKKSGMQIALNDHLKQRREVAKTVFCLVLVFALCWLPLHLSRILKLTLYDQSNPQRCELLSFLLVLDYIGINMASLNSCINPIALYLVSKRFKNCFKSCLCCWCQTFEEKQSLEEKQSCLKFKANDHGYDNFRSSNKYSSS
Kind of assay: Inhibition of [125I]-ET-1 binding to rat cerebellum ETB receptors. Conditions: [125I]-ET-1 20 pM, 2 hours at 37 C; read-out: concentration producing 50% inhibition of the binding of [125I]-ET-1 to rat cerebellum ETB receptors. The procedure: B) Preparation of ETB Receptors:
Rats are killed by cervical dislocation and the cerebellum tissue is removed into ice cold Tris buffer pH 7.4 containing sucrose (0.25M), ethylenediaminetetracetic acid (3 mM), and a cocktail of protease inhibitors. After homogenizing using a glass/teflon manual homogenizer, the samples are centrifuged at 4-- C for 17 minutes at 1000 g, and the resulting supernatants are retained. This material is centrifuged at 4000 g for 35 minutes at 4-- C and the pellets are resuspended in 50 mM Tris buffer pH 7.4, and the protein concentration is measured. Aliquots of […] are frozen in a mixture of methanol and solid carbon dioxide and stored at -20-- C until required. For use in the assay samples are diluted to the required concentration with Tris buffer pH 7.4 containing 0.1% bovine serum albumin.
Assays are performed using Millipore 96 well filtration plates with 0.22 μm filters in a final volume of […]. Mixtures consisting of test compound and [^125 I]-ET-1 (20 pM) in buffer pH 7.4 containing 0.1% bovine serum albumin are treated with either A10 cells or cerebellum protein. Total and non-specific binding are measured in the absence and presence of unlabeled ET-1 (100 nM). Approximately 60,000 A10 cells are used per well or 5 μg of cerebellum protein. Plates are incubated for 2 hours at 37-- C before the reaction is terminated by vacuum filtration. […]

The next assay relates to hamster bleomycin model. Conditions: cited from earlier work.

Non-standard residues stand in square brackets, D forms with d. Residues, ends and D or L forms follow the SMILES beside them.

Consider `Cc1ccccc1[C@H](Oc1cc(OCc2ccc3c(c2)OCO3)ccc1C#N)C(=O)O`, for which the IC50 on A10 cell ETA receptors worked out at 0.006 µM; in assay [1] it was 35 µM.

Regarding `CC(C)C[C@@H]1NC(=O)[C@@H](C(C)C)NC(=O)[C@@H]2CCCN2C(=O)[C@@H](CC(=O)O)NC(=O)[C@@H](Cc2c[nH]c3ccccc23)NC1=O` [BQ123] (cyclo(L[dW][dD]P[dV])), the anti-fibrotic effect result in the assay with hamster bleomycin model is “anti-fibrotic effects”.
